Columns and labels:
Escherichia coli [1] = experiment: Antibacterial activity against ESBL-producing multidrug-resistant Escherichia coli clinical isolate 14-1 assessed as inhibition of bacterial growth incubated for 18 to 20 hrs by two fold serial dilution assay; format: functional; settings: time 18-20 hrs
Escherichia coli [2] = experiment: Antibacterial activity against ESBL-producing multidrug-resistant Escherichia coli clinical isolate 14-2 assessed as inhibition of bacterial growth incubated for 18 to 20 hrs by two fold serial dilution assay; format: functional; settings: time 18-20 hrs
Escherichia coli [3] = experiment: Antibacterial activity against ESBL-producing multidrug-resistant Escherichia coli clinical isolate 14-4 assessed as inhibition of bacterial growth incubated for 18 to 20 hrs by two fold serial dilution assay; format: functional; settings: time 18-20 hrs
Klebsiella pneumoniae [4] = experiment: Antibacterial activity against KPC-2 producing multidrug-resistant Klebsiella pneumoniae clinical isolate 15-1 assessed as inhibition of bacterial growth incubated for 18 to 20 hrs by two fold serial dilution assay; format: functional; settings: time 18-20 hrs
Klebsiella pneumoniae [5] = experiment: Antibacterial activity against KPC-2 producing multidrug-resistant Klebsiella pneumoniae clinical isolate 15-2 assessed as inhibition of bacterial growth incubated for 18 to 20 hrs by two fold serial dilution assay; format: functional; settings: time 18-20 hrs
Klebsiella pneumoniae [6] = experiment: Antibacterial activity against KPC-2 producing multidrug-resistant Klebsiella pneumoniae clinical isolate 15-5 assessed as inhibition of bacterial growth incubated for 18 to 20 hrs by two fold serial dilution assay; format: functional; settings: time 18-20 hrs
Escherichia coli [7] = experiment: Antibacterial activity against Escherichia coli ATCC35218 assessed as inhibition of bacterial growth incubated for 18 to 20 hrs by two fold serial dilution assay; format: functional; settings: time 18-20 hrs
Pseudomonas aeruginosa [8] = experiment: Antibacterial activity against IMP-4 producing multidrug-resistant Pseudomonas aeruginosa clinical isolate 17-13 assessed as inhibition of bacterial growth incubated for 18 to 20 hrs by two fold serial dilution assay; format: functional; settings: time 18-20 hrs
Pseudomonas aeruginosa [9] = experiment: Antibacterial activity against IMP-4 producing multidrug-resistant Pseudomonas aeruginosa clinical isolate 17-1 assessed as inhibition of bacterial growth incubated for 18 to 20 hrs by two fold serial dilution assay; format: functional; settings: time 18-20 hrs
Pseudomonas aeruginosa [10] = experiment: Antibacterial activity against IMP-4 producing multidrug-resistant Pseudomonas aeruginosa clinical isolate 19-17 assessed as inhibition of bacterial growth incubated for 18 to 20 hrs by two fold serial dilution assay; format: functional; settings: time 18-20 hrs
Acinetobacter baumannii [11] = experiment: Antibacterial activity against OXA-23 producing multidrug-resistant Acinetobacter baumannii clinical isolate 17-2 assessed as inhibition of bacterial growth incubated for 18 to 20 hrs by two fold serial dilution assay; format: functional; settings: time 18-20 hrs
Acinetobacter baumannii [12] = experiment: Antibacterial activity against OXA-23 producing multidrug-resistant Acinetobacter baumannii clinical isolate 17-3 assessed as inhibition of bacterial growth incubated for 18 to 20 hrs by two fold serial dilution assay; format: functional; settings: time 18-20 hrs
Pseudomonas aeruginosa [13] = experiment: Antibacterial activity against IMP-4 producing multidrug-resistant Pseudomonas aeruginosa clinical isolate 19-5 assessed as inhibition of bacterial growth incubated for 18 to 20 hrs by two fold serial dilution assay; format: functional; settings: time 18-20 hrs
Pseudomonas aeruginosa [14] = experiment: Antibacterial activity against IMP-4 producing multidrug-resistant Pseudomonas aeruginosa clinical isolate 19-1 assessed as inhibition of bacterial growth incubated for 18 to 20 hrs by two fold serial dilution assay; format: functional; settings: time 18-20 hrs
Acinetobacter baumannii [15] = experiment: Antibacterial activity against OXA-23 producing multidrug-resistant Acinetobacter baumannii clinical isolate 17-5 assessed as inhibition of bacterial growth incubated for 18 to 20 hrs by two fold serial dilution assay; format: functional; settings: time 18-20 hrs
Acinetobacter baumannii [16] = experiment: Antibacterial activity against OXA-23 producing multidrug-resistant Acinetobacter baumannii clinical isolate 17-6 assessed as inhibition of bacterial growth incubated for 18 to 20 hrs by two fold serial dilution assay; format: functional; settings: time 18-20 hrs
Acinetobacter baumannii [17] = experiment: Antibacterial activity against OXA-23 producing multidrug-resistant Acinetobacter baumannii clinical isolate 17-7 assessed as inhibition of bacterial growth incubated for 18 to 20 hrs by two fold serial dilution assay; format: functional; settings: time 18-20 hrs
Acinetobacter baumannii [18] = experiment: Antibacterial activity against OXA-23 producing multidrug-resistant Acinetobacter baumannii clinical isolate 17-8 assessed as inhibition of bacterial growth incubated for 18 to 20 hrs by two fold serial dilution assay; format: functional; settings: time 18-20 hrs
Klebsiella pneumoniae [19] = experiment: Antibacterial activity against KPC-2 producing multidrug-resistant Klebsiella pneumoniae clinical isolate 15-3 assessed as inhibition of bacterial growth incubated for 18 to 20 hrs by two fold serial dilution assay; format: functional; settings: time 18-20 hrs
Acinetobacter baumannii [20] = experiment: Antibacterial activity against OXA-23 producing multidrug-resistant Acinetobacter baumannii clinical isolate 15-1 assessed as inhibition of bacterial growth incubated for 18 to 20 hrs by two fold serial dilution assay; format: functional; settings: time 18-20 hrs
Acinetobacter baumannii [21] = experiment: Antibacterial activity against OXA-23 producing multidrug-resistant Acinetobacter baumannii clinical isolate 15-2 assessed as inhibition of bacterial growth incubated for 18 to 20 hrs by two fold serial dilution assay; format: functional; settings: time 18-20 hrs
Acinetobacter baumannii [22] = experiment: Antibacterial activity against OXA-23 producing multidrug-resistant Acinetobacter baumannii clinical isolate 15-3 assessed as inhibition of bacterial growth incubated for 18 to 20 hrs by two fold serial dilution assay; format: functional; settings: time 18-20 hrs
Acinetobacter baumannii [23] = experiment: Antibacterial activity against OXA-23 producing multidrug-resistant Acinetobacter baumannii clinical isolate 15-4 assessed as inhibition of bacterial growth incubated for 18 to 20 hrs by two fold serial dilution assay; format: functional; settings: time 18-20 hrs
Acinetobacter baumannii [24] = experiment: Antibacterial activity against OXA-23 producing multidrug-resistant Acinetobacter baumannii clinical isolate 15-5 assessed as inhibition of bacterial growth incubated for 18 to 20 hrs by two fold serial dilution assay; format: functional; settings: time 18-20 hrs
[25] = AUC (0 to infinity) in ICR mouse at 20 mg/kg,iv administration measured upto 6 hrs by LC-MS/MS analysis; format: ADME, organism-based; settings: in vivo
[26] = Clearance in ICR mouse at 20 mg/kg,iv administration measured upto 6 hrs by LC-MS/MS analysis; format: ADME, organism-based; settings: in vivo
[27] = Half life in ICR mouse at 20 mg/kg,iv administration measured upto 6 hrs by LC-MS/MS analysis; format: ADME, organism-based; settings: in vivo
[28] = MRT in ICR mouse at 20 mg/kg,iv administration measured upto 6 hrs by LC-MS/MS analysis; format: ADME, organism-based; settings: in vivo
[29] = Volume of distribution at steady state in ICR mouse at 20 mg/kg,iv administration measured upto 6 hrs by LC-MS/MS analysis; format: ADME, organism-based; settings: in vivo, read-out: Vdss
[30] = Plasma protein binding in mouse incubated for 35 mins by LC-MS/MS analysis; format: ADME, cell-free; settings: read-out: PPB (converted)

C[C@](O/N=C(\C(=O)N[C@@H]1C(=O)N2C(C(=O)O)=C(CSCCNC(=O)c3ccc(O)c(O)c3Cl)CS[C@H]12)c1nc(N)sc1Cl)(C(=O)O)C(F)(F)F.O=C(O)C(F)(F)F
MIC (Escherichia coli [1]): 0.06 µg/mL
MIC (Escherichia coli [2]): 0.5 µg/mL
MIC (Escherichia coli [3]): ≤ 0.03 µg/mL
MIC (Klebsiella pneumoniae [4]): 0.25 µg/mL
MIC (Klebsiella pneumoniae [5]): 0.5 µg/mL
MIC (Klebsiella pneumoniae [6]): 0.125 µg/mL
MIC (Escherichia coli [7]): 0.125 µg/mL
MIC (Pseudomonas aeruginosa [8]): 0.125 µg/mL
MIC (Pseudomonas aeruginosa [9]): 8 µg/mL
MIC (Pseudomonas aeruginosa [10]): 0.06 µg/mL
MIC (Acinetobacter baumannii [11]): 0.06 µg/mL
MIC (Acinetobacter baumannii [12]): 0.5 µg/mL
MIC (Pseudomonas aeruginosa [13]): 0.25 µg/mL
MIC (Pseudomonas aeruginosa [14]): 1 µg/mL
MIC (Acinetobacter baumannii [15]): 0.125 µg/mL
MIC (Acinetobacter baumannii [16]): 0.5 µg/mL
MIC (Acinetobacter baumannii [17]): 0.5 µg/mL
MIC (Acinetobacter baumannii [18]): 0.125 µg/mL
MIC (Klebsiella pneumoniae [19]): 0.5 µg/mL

Nc1nc(/C(=N/OC(C(=O)O)C2CCC(F)(F)CC2)C(=O)N[C@@H]2C(=O)N3C(C(=O)O)=C(CSCCNC(=O)c4ccc(O)c(O)c4Cl)CS[C@H]23)c(Cl)s1.O=C(O)C(F)(F)F (some centres not stated)
MIC (Escherichia coli [1]): 0.125 µg/mL
MIC (Escherichia coli [2]): 0.25 µg/mL
MIC (Escherichia coli [3]): 0.5 µg/mL
MIC (Acinetobacter baumannii [20]): 4 µg/mL
MIC (Acinetobacter baumannii [21]): 1 µg/mL
MIC (Acinetobacter baumannii [22]): 4 µg/mL
MIC (Acinetobacter baumannii [23]): 8 µg/mL
MIC (Acinetobacter baumannii [24]): 4 µg/mL
MIC (Klebsiella pneumoniae [4]): 0.5 µg/mL
MIC (Klebsiella pneumoniae [5]): 1 µg/mL
MIC (Klebsiella pneumoniae [6]): 1 µg/mL
MIC (Escherichia coli [7]): 0.125 µg/mL
MIC (Pseudomonas aeruginosa [8]): 0.5 µg/mL
MIC (Pseudomonas aeruginosa [10]): 0.125 µg/mL
MIC (Acinetobacter baumannii [11]): 0.25 µg/mL
MIC (Acinetobacter baumannii [12]): 2 µg/mL
MIC (Pseudomonas aeruginosa [13]): 0.5 µg/mL
MIC (Pseudomonas aeruginosa [14]): 8 µg/mL
MIC (Klebsiella pneumoniae [19]): 0.5 µg/mL
AUC(0-inf) [25]: 4740 ng·h/mL
clearance [26]: 54.1 mL/min/kg
half-life [27]: 20.4 min
MRT [28]: 10.8 min
Vd [29]: 0.649 L/kg
fraction unbound at 35 min [30]: 0.031

CC(C)[C@@H](O/N=C(\C(=O)N[C@@H]1C(=O)N2C(C(=O)O)=C(CSCCNC(=O)c3ccc(O)c(O)c3Cl)CS[C@H]12)c1csc(N)n1)C(=O)O.O=C(O)C(F)(F)F
MIC (Escherichia coli [1]): 0.125 µg/mL
MIC (Escherichia coli [2]): 1 µg/mL
MIC (Escherichia coli [3]): 0.125 µg/mL
MIC (Klebsiella pneumoniae [4]): 0.25 µg/mL
MIC (Klebsiella pneumoniae [5]): 0.25 µg/mL
MIC (Klebsiella pneumoniae [6]): 0.25 µg/mL
MIC (Escherichia coli [7]): 0.5 µg/mL
MIC (Pseudomonas aeruginosa [8]): 0.06 µg/mL
MIC (Pseudomonas aeruginosa [9]): 32 µg/mL
MIC (Pseudomonas aeruginosa [10]): 0.25 µg/mL
MIC (Acinetobacter baumannii [11]): 1 µg/mL
MIC (Acinetobacter baumannii [12]): 0.5 µg/mL
MIC (Pseudomonas aeruginosa [13]): 2 µg/mL
MIC (Pseudomonas aeruginosa [14]): 2 µg/mL
MIC (Acinetobacter baumannii [15]): 2 µg/mL
MIC (Acinetobacter baumannii [16]): 2 µg/mL
MIC (Acinetobacter baumannii [17]): 4 µg/mL
MIC (Acinetobacter baumannii [18]): 1 µg/mL
MIC (Klebsiella pneumoniae [19]): 2 µg/mL

CC(C)[C@H](O/N=C(\C(=O)N[C@@H]1C(=O)N2C(C(=O)O)=C(CSCCNC(=O)c3ccc(O)c(O)c3Cl)CS[C@H]12)c1csc(N)n1)C(=O)O.O=C(O)C(F)(F)F
MIC (Escherichia coli [1]): 0.125 µg/mL
MIC (Escherichia coli [2]): 1 µg/mL
MIC (Escherichia coli [3]): 0.125 µg/mL
MIC (Klebsiella pneumoniae [4]): 1 µg/mL
MIC (Klebsiella pneumoniae [5]): 1 µg/mL
MIC (Klebsiella pneumoniae [6]): 4 µg/mL
MIC (Escherichia coli [7]): 0.06 µg/mL
MIC (Pseudomonas aeruginosa [8]): 0.125 µg/mL
MIC (Pseudomonas aeruginosa [9]): 8 µg/mL
MIC (Pseudomonas aeruginosa [10]): 0.25 µg/mL
MIC (Acinetobacter baumannii [11]): 4 µg/mL
MIC (Acinetobacter baumannii [12]): 4 µg/mL
MIC (Pseudomonas aeruginosa [13]): 0.5 µg/mL
MIC (Pseudomonas aeruginosa [14]): 1 µg/mL
MIC (Acinetobacter baumannii [15]): 4 µg/mL
MIC (Acinetobacter baumannii [16]): 16 µg/mL
MIC (Acinetobacter baumannii [17]): 8 µg/mL
MIC (Acinetobacter baumannii [18]): 4 µg/mL
MIC (Klebsiella pneumoniae [19]): 4 µg/mL
